Laboratory results published in patent publication US8796329B2, “Method for controlling angiogenesis in animals” (Ziopharm Oncology, Inc., priority 2006, dated 2014).
Values joined by “and” are separate entries in the source; they are usually repeats but may differ in a detail not shown here. Equal values may be shown once.

How the values were obtained:
LL47 (Fibroblast) = assay: CellTiter-Glo Luminescent Cell Viability Assay, LL47; format: cell-based; settings: Homo sapiens
Experimental: (§1) CellTiter-Glo Luminescent Cell Viability Assay (Promega Corporation) is based on quantification of ATP levels in cell cultures. The amount of ATP produced in cell culture reflects the number of viable cells. […] HUVECs and LL47 cells were seeded in 96-well plates in their growth medium. After 24 hours, various doses of the compound of formula (II) were added to both cultures side by side, having six replicates for each dose. At different treatment time points, CellTiter-Glo reagent were added to the cultures following the manufacturer's instructions; luminescence signals were measured with an EnVision™ Multilabel Reader (Perkin Elmer, Wellesley, Mass.) The blank control groups were given saline vehicle only, and positive control groups were given 10 μM T-araC (provided by Southern). Data was analyzed for the mean and standard deviation for each treatment condition. IC50 values of the compound of formula (II) against HUVEC and LL47 cell cultures were determined based on the dose response curves as shown in FIG. 1. There were several test drug concentrations with three treatment time points (2, 4, and 6 days). For the 6-day assay experiment, the culture media with different test concentration treatments was exchanged at Day 4.

P388 murine leukemia = assay: Response of ip implanted P388 murine leukemia to ip and po administration; format: in vivo, mice; settings: for treatment-related deaths / increase in lifespan (ILS) / median day of death: qld×9; for increase in lifespan (ILS): p=0.000 vs vehicle; for median day of death: vehicle control 11.5
Text: Mice were implanted ip with one million cells of P388 murine leukemia using a 23-gauge needle. The P388 tumor line was maintained as an in vivo passage. The day of tumor implantation was designated as day 0, with treatment beginning on day 1 following tumor implantation. A sufficient number of mice were implanted so that animals with body weights in a range as narrow as possible were selected for the trial.
The compound of formula (II) was formulated in saline on the first day of treatment (day 1) at a concentration of 40 mg/mL. This solution was then diluted to the lower dosing concentrations of 30, 20, and 5 mg/mL. Enough of the compound of formula (II) was prepared on day 1 for the entire dosing period. Each dosing solution was then aliquoted for daily treatments, frozen at −20° C., and thawed on each day of injection. All injections were administered on the basis of exact body weight with the injection volume being 0.2 mL/10 g body weight.
The study consisted of four treatment groups of eight mice per group and one vehicle-treated control group with ten mice, for a total of 42 mice on the first day of treatment. The study design called for the compound of formula (II) to be administered once a day for nine consecutive days (qld×9) by oral gavage at dosages of 800, 600, and 400 mg/kg/dose and by ip injection at a dosage of 100 mg/kg/dose. The control group (group 1) was treated with the vehicle (saline), which was administered po on a qld×9 injection schedule.
The study was terminated 17 days after tumor implantation. Any animal that became moribund was euthanized prior to study termination.
Number of nonspecific deaths, median days of death, and the increase in lifespan based on the median day of death and expressed as a percentage (% ILS).
The individual animals' survival time was used as the endpoint in a life tables analysis (stratified Kaplan-Meier estimation followed by the Mantel-Haenszel log-rank test) in order to statistically compare the survival data between groups.

[1] = tested on: blood vessel density in Matrigel plugs (VEGF, FGFb, heparin as angiogenic stimuli); assay: Matrigel Plug in vivo assay, intravenous dosing; parameters: species or system C57BL/6 mice
Experimental: Female C57BL/6 mice around 10-weeks old and Matrigel Matrix High Concentration (from Becton Dickinson) mixed with 50 ng/mL VEGF, 50 ng/mL FGFb, and heparin 3 ng/mL as angiogenic stimuli were used for the Matrigel Plug experiments. There were two groups of mice, five mice in each group, with one group serving as a control and the second group expected to be treated once daily for 9 days with a compound of formula II at 100 mg/kg/dose (0.2 mL/10 g of body weight) by intravenous (i.v.) injection. The control group received oral saline as a vehicle. Each mouse received two Matrigel plugs. On Day 0, 500 μL Matrigel at 4° C. was subcutaneously injected to each side of the mouse, wherein the injection area was shaved. To increase the contact area of injected Matrigel into subcutaneous tissues and form a round shape plug, a wide subcutaneous pocket was formed by swaying the needle point right and left after a routine subcutaneous insertion. The injection was done rapidly with an appropriate size needle (21 G-25 G) to ensure the entire contents of the syringe were delivered in one plug. The injected Matrigel rapidly formed a single solid gel plug. […] Plugs from each group were collected at Day 12. The mice were euthanized and the mouse skin was pulled back to expose the plug. The plugs were dissected out and fixed in 10% formalin for histological analysis. Sections of 5 μm from paraffin-embedded plugs were stained with H&E. Blood vessel density in a cross sectional area of each Matrigel plug was analyzed using Image Pro-Plus software. For each group of mice, at least six Matrigel plugs were quantitatively analyzed to assess any statistical significant difference of microvessel density between groups. The quantitation of microblood vessel density using a compound of formula (II) is shown below.

HUVEC (Endothelia) [2] = assay: 3H-thymidine incorporation assay for HUVEC; format: cell-based; settings: Homo sapiens
Experimental: HUVEC cultures were seeded and treated in 96-well plates, as described above for the CellTiter-Glo viability assay. After treatment of HUVEC cultures with the compound of formula (II), 96-well plates were pulsed with 1 μCi of ^3H-thymidine for the final 6-18 hours of culture and then harvested with a semiautomatic cell harvester onto filters that bind the DNA. Samples were counted in a PerkinElmer Microbeta scintillation and luminescence counter (Trilux) to determine the amount of 3H-TdR uptake. The data was then transferred and processed using an Excel spreadsheet program to provide for the mean and standard deviation for % of control values. The results were analyzed by calculating IC50 values and including a table showing % of control values for each compound tested. There were several test drug concentrations with three treatment time points (2, 4, and 6 days) and 6 replicates for each test concentration as shown in FIG. 2. For the 6-day assay experiment, the culture media with different test concentration treatments was exchanged at Day 4.

HUVEC (Endothelia) [3] = assay: CellTiter-Glo Luminescent Cell Viability Assay, HUVEC; format: cell-based; settings: Homo sapiens
Experimental: as §1

[4] = tested on: blood vessel density in Matrigel plugs; assay: Matrigel Plug in vivo assay, oral dosing; settings: 350 mg/kg/dose oral, once daily for 9 days, plugs Day 14, male CD2F1 mice
Experimental: Male CD2F1 mice were used for the Matrigel Plug experiment. There were two groups of mice, five mice in each group, with one group serving as a control and the second group was treated once daily for 9 days with a compound of formula II at 350 mg/kg/dose (0.2 mL/10 g of body weight) by oral administration in a saline solution. The control group received oral saline as a vehicle. Each mouse received two Matrigel plugs. On Day 0, 500 μL Matrigel at 4° C. was subcutaneously injected to each side of the mouse, wherein the injection area was shaved. The injection was done rapidly with an appropriate size needle (21 G-25 G) to ensure the entire contents of the syringe were delivered in one plug. The injected Matrigel rapidly formed a single solid gel plug. On Day 14, the mice were euthanized and the mouse skin was pulled back to expose the plug. The plugs were dissected out and fixed in 10% formalin for histological analysis. Sections of 5 μm from paraffin-embedded plugs were stained with haematoxylin and eosin (H&E) stain. Blood vessel density in a cross sectional area of each Matrigel plug was analyzed using Image Pro-Plus software. Each of the plugs was fixed in 10% formalin.

**Q.** For `C[As](C)SCC(NC(=O)CCC(N)C(=O)O)C(=O)NCC(=O)O` (stereo not drawn) [Compound of Formula (II)], which IC50 (LL47 (Fibroblast); 48 h, Day 2) is on record?
**A.** < 5 mM

**Q.** What about the IC50 (LL47 (Fibroblast); 96 h, Day 4) of the same compound?
**A.** < 2 mM

**Q.** And the IC50 (LL47 (Fibroblast); 144 h, Day 6)?
**A.** < 1.5 mM

**Q.** And the “increase in lifespan, in words” value (P388 murine leukemia; 100 mg/kg/dose ip)?
**A.** tolerated and resulted in a minimal increase in lifespan

**Q.** What about the treatment-related deaths (P388 murine leukemia; 100 mg/kg/dose ip) of the same compound?
**A.** tolerated without treatment-related deaths

**Q.** And the “increase in lifespan (ILS)” value (P388 murine leukemia; 100 mg/kg/dose ip)?
**A.** 26%

**Q.** And the “median day of death” value (P388 murine leukemia; 100 mg/kg/dose ip)?
**A.** 14.5 days

**Q.** And the “increase in lifespan, in words” value (P388 murine leukemia; 400 mg/kg/dose po)?
**A.** tolerated and elicited a minimal increase in lifespan

**Q.** What about the treatment-related deaths (P388 murine leukemia; 400 mg/kg/dose po) of the same compound?
**A.** No treatment-related deaths

**Q.** And the “increase in lifespan (ILS)” value (P388 murine leukemia; 400 mg/kg/dose po)?
**A.** 30%

**Q.** What about the “median day of death” value (P388 murine leukemia; 400 mg/kg/dose po) of the same compound?
**A.** 15.0 days

**Q.** What about the “toxicity to C57BL/6 mice” value ([1]; 100 mg/kg/dose i.v. once daily, doses 6 and 8 skipped) of the same compound?
**A.** higher than expected toxicity

**Q.** And the “microblood vessel density, individual animal” value ([1]; 100 mg/kg/dose i.v., 7 doses, plugs collected Day 12, female C57BL/6 mice, animals #1-#4)?
**A.** 3 and 2 (2×) and 0

**Q.** And the “microblood vessel density, Average” value ([1]; 100 mg/kg/dose i.v., 7 doses, plugs collected Day 12, female C57BL/6 mice, control average 48.8)?
**A.** 1.75

**Q.** What about the IC50 (HUVEC (Endothelia) [2]; Day 2) of the same compound?
**A.** < 0.1 mM

**Q.** And the IC50 (HUVEC (Endothelia) [2]; Day 4)?
**A.** < 1 mM

**Q.** And the IC50 (HUVEC (Endothelia) [2]; Day 6)?
**A.** < 0.5 mM

**Q.** And the IC50 (HUVEC (Endothelia) [3]; 48 h, Day 2)?
**A.** < 1.5 mM

**Q.** And the IC50 (HUVEC (Endothelia) [3]; 96 h, Day 4)?
**A.** < 1 mM

**Q.** What about the IC50 (HUVEC (Endothelia) [3]; 144 h, Day 6) of the same compound?
**A.** < 0.5 mM

**Q.** And the “reduction of angiogenesis compared to the control” value [4]?
**A.** effective in reducing angiogenesis
